In assay [1] the test system is Corn Earworm (CEW) (Helicoverpa zea). In words: Bioassays on Corn Earworm (CEW), 128-well diet tray assay. As to conditions: 168 h, read-out: CEW Rating (% mortality). It is filed as in vivo. In outline: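 Second-instar larvae (one to five per well) placed on artificial diet treated with 50 μg/cm^2 compound in 90:10 acetone-water, dried; eight wells per compound. Held at 25° C, 14:10 light-dark, five to seven days; percent mortality averaged over wells.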

Assay [2] deals with Beet Armyworm (BAW) (Spodoptera exigua). In words: Bioassays on Beet Armyworm (BAW), 128-well diet tray assay. As to conditions: 168 h, read-out: BAW Rating (% mortality). It is filed as in vivo. In outline: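 Second-instar larvae (1–5 per well) on artificial diet surface-treated with 50 μg/cm^2 compound applied in 90:10 acetone-water and dried; eight wells per compound. Held 5–7 days at 25° C., 14:10 light-dark. Percent mortality scored per well and averaged over eight wells.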

[3] abbreviates: 50 μg/cm^2 test compound on artificial diet, second instar larvae, 25° C., five to seven days, average of eight wells.

The structures appear in SMILES notation. Like-named read-outs stand apart in the source and are kept apart here.

Usually mortality stands for the percentage killed. On to `O=C(CC(F)(F)F)NCc1ccc(/C=C/C(c2cc(Cl)c(F)c(Cl)c2)C(F)(F)F)cc1` (centres unmarked) [CC16], for which the mortality at 50 µg/cm2 in assay [1] (setting [3]) and in assay [2] (setting [3]) was 50 to 100% throughout.
Take `COc1cc(/C=C/C(c2cc(Cl)c(F)c(Cl)c2)C(F)(F)F)ccc1C(=O)NCc1ccc(Cl)nc1` (centres unmarked) [AC70]: the mortality at 50 µg/cm2 in assay [1] (setting [3]) and in assay [2] (setting [3]) was 0% each time.
For `Cc1cc(/C=C/C(c2cc(Cl)c(Cl)c(Cl)c2)C(F)(F)F)ccc1C(=O)NCC(=O)NCC(F)(F)F` (centres unmarked) [AC78], the mortality at 50 µg/cm2 in assay [1] (setting [3]) and in assay [2] (setting [3]) was 50 to 100% throughout.
`CCNC(=O)NCc1ccc(/C=C/C(c2cc(Cl)cc(Cl)c2)C(F)(F)F)cc1Cl` (centres unmarked) [CC31, (E)-1-(2-chloro-4-(3-(3,5-dichlorophenyl)-4,4,4-trifluorobut-1-en-1-yl)benzyl)-3-ethylurea]: the mortality at 50 µg/cm2 was 0% in assay [1] (setting [3]) and 0 to 50% in assay [2] (setting [3]).
On the same counts, the results for `COc1cc(/C=C/C(c2cc(Cl)c(F)c(Cl)c2)C(F)(F)F)ccc1C(=O)NC1CSC1` (centres unmarked) [AC71] are 50 to 100% and 50 to 100%.
On the same counts, the results for `Cc1cc(/C=C/C(c2cc(Cl)cc(Cl)c2)C(F)(F)F)ccc1C(=O)NC(C)c1ccc(Cl)nc1` (centres unmarked) [AC44] are 50 to 100% and 50 to 100%.
For `COc1cc(/C=C/C(c2cc(Cl)c(F)c(Cl)c2)C(F)(F)F)ccc1C(=O)NC1CS(=O)(=O)C1` (centres unmarked) [AC85] the same measures were 50 to 100% and 50 to 100%.
With `O=C(NCc1ccc(/C=C/C(c2cc(Cl)c(Cl)c(Cl)c2)C(F)(F)F)cc1Cl)Oc1ccccc1Cl` (centres unmarked) [CC40], the mortality at 50 µg/cm2 in assay [1] was 50 to 100%; in assay [2] it was 0%.
Turning to `FC(F)(F)C(/C=C/c1ccc(-n2cncn2)cc1Cl)c1cc(Cl)cc(Cl)c1` (centres unmarked) [DC67], the mortality at 50 µg/cm2 in assay [1] (setting [3]) and in assay [2] (setting [3]) was 50 to 100% throughout.
In the case of `O=C(NC1CCCc2cc(/C=C/C(c3cc(Cl)c(Cl)c(Cl)c3)C(F)(F)F)ccc21)C1CC1` (centres unmarked) [BC7], the mortality at 50 µg/cm2 in assay [1] (setting [3]) and in assay [2] (setting [3]) was 50 to 100% throughout.
As for `O=C(Cc1ccc(Cl)nc1)NC1CCc2cc(/C=C/C(c3cc(Cl)c(F)c(Cl)c3)C(F)(F)F)ccc21` (centres unmarked) [BC9], the mortality at 50 µg/cm2 in assay [1] (setting [3]) and in assay [2] (setting [3]) was 50 to 100% each time.
Regarding `O=C(NOc1ccc(/C=C/C(c2cc(Cl)c(Cl)c(Cl)c2)C(F)(F)F)cc1)C1CC1` (centres unmarked) [CC52, (E)-N-(4-(4,4,4-trifluoro-3-(3,4,5-trichlorophenyl)but-1-en-1-yl)phenoxy)cyclopropanecarboxamide], the mortality at 50 µg/cm2 is 0% in assay [1] (setting [3]) and 50 to 100% in assay [2] (setting [3]).
Consider `CCc1cc(/C=C/C(c2cc(Cl)c(F)c(Cl)c2)C(F)(F)F)ccc1C(=O)NCc1cccnc1Cl` (centres unmarked) [AC76], for which the mortality at 50 µg/cm2 in assay [1] (setting [3]) and in assay [2] (setting [3]) was 50 to 100% each time.
In the case of `FC(F)(F)C(/C=C/c1ccc(CNC(=S)C2CC2)c(Cl)c1)c1cc(Cl)c(Cl)c(Cl)c1` (centres unmarked) [CC20], the mortality at 50 µg/cm2 in assay [1] (setting [3]) and in assay [2] (setting [3]) was 50 to 100% in each case.
With `Cc1cc(/C=C/C(c2cc(Cl)cc(Cl)c2)C(F)(F)F)ccc1C(=O)NCc1ncccn1` (centres unmarked) [AC18], the mortality at 50 µg/cm2 in assay [1] (setting [3]) and in assay [2] (setting [3]) was 50 to 100% throughout.
`Fc1ccccc1C(/C=C/c1ccc(-n2cncn2)cc1)C(F)(F)F` (centres unmarked) [DC10]: the mortality at 50 µg/cm2 in assay [1] (setting [3]) and in assay [2] (setting [3]) was 0% throughout.
Consider `O=C(NC1CS(=O)(=O)C1)c1ccc(/C=C/C(c2cc(Cl)c(F)c(Cl)c2)C(F)(F)F)cc1F` (centres unmarked) [AC84], for which the mortality at 50 µg/cm2 in assay [1] (setting [3]) and in assay [2] (setting [3]) was 50 to 100% each time.
Consider `CSc1ncnn1-c1ccc(/C=C/C(c2cc(Cl)cc(Cl)c2)C(F)(F)F)cc1` (centres unmarked) [DC25], for which the mortality at 50 µg/cm2 in assay [1] (setting [3]) and in assay [2] (setting [3]) was 0% throughout.
With `C=CCNC(=S)NCc1ccc(/C=C/C(c2cc(Cl)c(Cl)c(Cl)c2)C(F)(F)F)cc1Cl` (centres unmarked) [CC38], the mortality at 50 µg/cm2 in assay [1] (setting [3]) and in assay [2] (setting [3]) was 50 to 100% in each case.
For the compound `O=C(NC1CS(=O)(=O)C1)c1ccc(/C=C/C(c2cc(Cl)c(Cl)c(Cl)c2)C(F)(F)F)cc1Cl` (centres unmarked) [AC30], the mortality at 50 µg/cm2 in assay [1] (setting [3]) and in assay [2] (setting [3]) was 50 to 100% each time.
Consider `Cc1cc(/C=C/C(c2cc(Cl)c(F)c(Cl)c2)C(F)(F)F)ccc1C(=O)NCc1ccc(Cl)cn1` (centres unmarked) [AC53], for which the mortality at 50 µg/cm2 in assay [1] (setting [3]) and in assay [2] (setting [3]) was 50 to 100% throughout.
Take `O=C(NC1CSC1)c1ccc(/C=C/C(c2cc(Cl)c(F)c(Cl)c2)C(F)(F)F)cc1F` (centres unmarked) [AC67]: the mortality at 50 µg/cm2 in assay [1] (setting [3]) and in assay [2] (setting [3]) was 50 to 100% in each case.
`O=C(NCc1ccc(/C=C/C(c2cc(Cl)c(Cl)c(Cl)c2)C(F)(F)F)cc1F)C1CC1` (centres unmarked) [CC28]: the mortality at 50 µg/cm2 in assay [1] (setting [3]) and in assay [2] (setting [3]) was 50 to 100% in each case.
For `FC(F)(F)C(/C=C/c1ccc(-n2cncn2)cc1)c1ccccc1` (centres unmarked) [DC3], the mortality at 50 µg/cm2 is 0% in assay [1] (setting [3]) and 0 to 50% in assay [2] (setting [3]).
For `O=C(CC(F)(F)F)NCc1ccc(/C=C/C(c2ccc(Cl)c(Cl)c2)C(F)(F)F)cc1Cl` (centres unmarked) [CC18] the same measures were 50 to 100% and 50 to 100%.
On the same counts, the results for `O=C(CNC(=O)c1ccc(/C=C\C(c2cc(Cl)c(Cl)c(Cl)c2)C(F)(F)F)cc1Br)NCC(F)(F)F` (centres unmarked) [AC95, (Z)-2-bromo-N-(2-oxo-2-((2,2,2-trifluoroethyl)amino)ethyl)-4-(4,4,4-trifluoro-3-(3,4,5-trichlorophenyl)but-1-en-1-yl)benzamide] are 50 to 100% and 50 to 100%.
For `Cc1cc(/C=C/C(c2cc(Cl)c(Cl)c(Cl)c2)C(F)(F)F)ccc1C(=O)NCc1ccc(Cl)nc1` (centres unmarked) [AC22] the same measures were 50 to 100% and 50 to 100%.
On to `Cc1cc(/C=C/C(c2cc(Cl)cc(Cl)c2)C(F)(F)F)cnc1C(=O)NCc1ccc(Cl)nc1` (centres unmarked) [AC60], for which the mortality at 50 µg/cm2 in assay [1] (setting [3]) and in assay [2] (setting [3]) was 50 to 100% throughout.
For the compound `O=C(NC1CCc2cc(/C=C/C(c3cc(Cl)c(Cl)c(Cl)c3)C(F)(F)F)ccc21)C1CC1` (centres unmarked) [BC6], the mortality at 50 µg/cm2 in assay [1] (setting [3]) and in assay [2] (setting [3]) was 50 to 100% throughout.
For `O=Cc1cc(/C=C/C(c2cc(Cl)cc(Cl)c2)C(F)(F)F)ccc1-n1cncn1` (centres unmarked) [DC52, (E)-5-(3-(3,5-dichlorophenyl)-4,4,4-trifluorobut-1-en-1-yl)-2-(1H-1,2,4-triazol-1-yl)benzaldehyde], the mortality at 50 µg/cm2 in assay [1] (setting [3]) and in assay [2] (setting [3]) was 0% each time.
Take `Cc1cc(/C=C\C(c2cc(Cl)cc(Cl)c2)C(F)(F)F)ccc1C(=O)NCC(=O)NC1CC1` (centres unmarked) [AC93]: the mortality at 50 µg/cm2 in assay [1] (setting [3]) was 0%; in assay [2] (setting [3]), 50 to 100%.
With `C=CCNC(=S)NC1CCc2cc(/C=C/C(c3cc(Cl)c(Cl)c(Cl)c3)C(F)(F)F)ccc21` (centres unmarked) [BC3], the mortality at 50 µg/cm2 in assay [1] (setting [3]) and in assay [2] (setting [3]) was 50 to 100% throughout.
With `N#Cc1cc(/C=C/C(c2cc(Cl)c(Cl)c(Cl)c2)C(F)(F)F)ccc1-n1cnc([N+](=O)[O-])n1` (centres unmarked) [DC40, (E)-2-(3-nitro-1H-1,2,4-triazol-1-yl)-5-(4,4,4-trifluoro-3-(3,4,5-trichlorophenyl)but-1-en-1-yl)benzonitrile], the mortality at 50 µg/cm2 in assay [1] (setting [3]) and in assay [2] (setting [3]) was 50 to 100% throughout.
For the compound `Cc1ncn(-c2ccc(/C=C/C(c3cc(Cl)cc(Cl)c3)C(F)(F)F)cc2)n1` (centres unmarked) [DC21], the mortality at 50 µg/cm2 in assay [1] (setting [3]) and in assay [2] (setting [3]) was 0% throughout.

(Values after patent US9615576B2, “Pesticidal compositions and processes related thereto” (Dow AgroSciences LLC, priority 2011, dated 2017).)
